We go through 29 molecules from patent publication US7901894B2, “Kinase inhibitors” (The Research Foundation of State University of New York, priority 1999, dated 2011).

For one data set, the target named is pp60^c-src (Homo sapiens, UniProt P12931). Put plainly: src Cellular Mimetic assay (RR-SRC phosphorylation). As to conditions: for inhibition at 1000 µM: read-out: % Inhibition of 2 mM RR-src phosphorylation by src, Cellular Mimetic; for % Inhibition of 2 mM RR-src at Inhibitor Concentration ( ): Table IV.
A further data set concerns the target T1, src (Homo sapiens, UniProt P12931).
T1 construct: purchased
Put plainly: src Literature Mimetic assay (RR-src phosphorylation). Type of data set: biochemical. The conditions noted are these: Inhibitor 1 mM; read-out: % Inhibition of 2 mM RR-src phosphorylation by src, Literature Mimetic.

The target of data set [1] is T2, PKA (Homo sapiens, UniProt P17612). The experiment in a line: PKA Literature Mimetic assay. The class given is biochemical. As to conditions: for Ki: Literature Mimetic (L) conditions. From the text: (§1) The boronic acid inhibitors 21-24 have two Arg residues in their sequence and therefore will bind to the phosphocellulose paper in addition to Kemptamide (although not as consistently or completely due to one less positive charge). Consequently, when analyzed as inhibitors, the amount of phosphorylated Kemptamide produced was not only counted, but also the amount of phosphorylated inhibitor simultaneously produced (e.g. see 26 below). The net result is that distorted IC50 curves are obtained which show net “stimulation” at higher inhibitor concentrations in some cases. […] The underlying substrate behavior of these “inhibitors” makes an accurate measurement of their inhibition potency impossible with the current assay. However, it does appear from the data that homologating/extending the boronic acid functionality with CH2 groups (homologations/extensions with boronic acid non-peptide src inhibitors may also be carried out) decreases the binding affinity and ability of the compound to function as a substrate.

For data set [2], the target named is T2, PKA. The experiment in a line: STAIRe method: form of the protein kinase the inhibitor binds best. The class given is biochemical. From the text:
This was a somewhat surprising result since these inhibitors are analogs of the “end product inhibitors” 1 and 12 which must bind simultaneously with MgADP, following phosphate transfer in the generally accepted reaction mechanism for protein kinases.

Data set [3] concerns the target T2, PKA. Put plainly: PKA Cellular Mimetic assay. Type of data set: biochemical. As to conditions: Cellular Mimetic (C) conditions.
From the text: as §1

A further data set concerns the target p56^lck (Homo sapiens, UniProt P06239). The conditions noted are these: analyzed with p56^lck; cited from earlier work.
Data set [4] deals with ovarian tumor cells from tumor N015. The experiment in a line: Patient tumor cell culture (ovarian tumors, abdominal carcinoma; tumor N015). The class given is cell-based, human. From the text: The initial non-peptide Src inhibitors have also shown very encouraging results in four different series of cell culture assays. 1) In the NIH 60-tumor cell panel assay, broad activity (as one would expect for a Src inhibitor) was seen against the tumor cell lines, including the prostate lines. […] […].

Data set [5] concerns T3, boronic acid-containing PKA pentapeptide inhibitor 21, Ac-RRGXI-NH2.
T3 sequence: RRGXI

Data set [6] deals with T4, boronic acid-containing PKA pentapeptide inhibitor 22, Ac-RRGXI-NH2.
T4 sequence: RRGXI

In data set [7] the target is cAMP-dependent protein kinase (PKA). Put plainly: PKA kinase inhibition assay, Literature Mimetic conditions.
Data set [8] has the same target. Put plainly: PKA kinase inhibition assay (Ki, Table I); reference: the same inhibitor under Literature Mimetic conditions.
The target is the same in data set [9]. Put plainly: PKA kinase inhibition assay with Kemptamide substrate, Cellular Mimetic conditions, 0 h preincubation.
For data set [10] the target is unchanged. Put plainly: PKA kinase inhibition assay with Kemptamide substrate, Literature Mimetic conditions, 0 h preincubation.
For data set [11] the target is unchanged. The experiment in a line: cell-based or functional assay.
Data set [12] has the same target. The experiment in a line: PKA kinase inhibition assay, Cellular Mimetic conditions; reference: phosphate inhibitor 1.
Data set [13] has the same target. The experiment in a line: PKA kinase inhibition assay, Literature Mimetic conditions; reference: phosphate inhibitor 1.
The target is the same in data set [14]. Put plainly: PKA kinase inhibition assay, Literature Mimetic conditions; reference: sulfamic acid inhibitor 8.

*1 amine or outer side, *2 acyl side, *3 side chain or, on linkers, in order; H or OH if unused. Where a SMILES comes first, the peptide text is derived from it. [ ]: non-standard residue; d: D form. X2 = O=C(O)CC(CC(=O)O)NC[C@H](N[*:1])C(=O)[*:2]; Abu(4-PO3H2) = N[C@@H](CCP(=O)(O)O)C(=O)O; X1 = O=C([C@H](CNS(=O)(=O)O)N[*:1])[*:2]; M1 = not defined here

T1 sequence (P12931 whole entry): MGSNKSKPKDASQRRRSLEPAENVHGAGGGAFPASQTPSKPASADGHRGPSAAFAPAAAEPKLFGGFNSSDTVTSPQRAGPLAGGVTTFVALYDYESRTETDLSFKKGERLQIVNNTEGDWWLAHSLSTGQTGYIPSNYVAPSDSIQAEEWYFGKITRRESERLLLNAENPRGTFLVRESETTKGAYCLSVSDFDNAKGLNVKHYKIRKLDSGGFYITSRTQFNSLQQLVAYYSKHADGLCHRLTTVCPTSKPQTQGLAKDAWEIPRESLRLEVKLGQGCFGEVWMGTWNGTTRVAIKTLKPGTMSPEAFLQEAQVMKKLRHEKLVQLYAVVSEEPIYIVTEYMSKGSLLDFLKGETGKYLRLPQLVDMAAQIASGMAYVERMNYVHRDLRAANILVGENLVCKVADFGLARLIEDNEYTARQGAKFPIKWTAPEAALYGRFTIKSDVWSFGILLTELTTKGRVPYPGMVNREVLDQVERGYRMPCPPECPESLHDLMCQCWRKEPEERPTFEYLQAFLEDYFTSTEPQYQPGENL
Chain of pp60^c-src (P12931 whole entry): as above
Chain of p56^lck (P06239 whole entry, species assumed): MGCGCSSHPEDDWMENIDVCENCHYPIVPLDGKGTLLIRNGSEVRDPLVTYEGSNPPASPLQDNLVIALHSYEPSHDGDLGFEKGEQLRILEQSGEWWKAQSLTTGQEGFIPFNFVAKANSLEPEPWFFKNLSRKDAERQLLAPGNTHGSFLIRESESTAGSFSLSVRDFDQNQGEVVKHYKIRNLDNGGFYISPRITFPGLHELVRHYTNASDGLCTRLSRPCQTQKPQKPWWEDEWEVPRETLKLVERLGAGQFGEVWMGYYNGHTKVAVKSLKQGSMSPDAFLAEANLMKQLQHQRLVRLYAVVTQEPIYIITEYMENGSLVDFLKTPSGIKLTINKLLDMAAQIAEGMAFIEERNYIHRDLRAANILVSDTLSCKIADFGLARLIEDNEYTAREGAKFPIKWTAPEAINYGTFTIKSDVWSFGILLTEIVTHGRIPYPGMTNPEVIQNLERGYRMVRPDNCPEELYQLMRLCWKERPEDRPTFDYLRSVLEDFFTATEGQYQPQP

A word on the inhibition: it is the change of the read-out against control, counted positive when it falls. For the molecule `NC(=O)C(O)C(=O)O` (centres unmarked), the values for the inhibition at 1000 µM at pp60^c-src and on src were 5% and 64%, respectively.

Turning to `OB(O)c1ccc2ccccc2c1` [compound 27], the “mode of inhibition relative to ATP” value at pp60^c-src (ATP increased up to 1 mM) was “not ATP-competitive”.

Take `CC[C@H](C)[C@H](NC(=O)[C@H](CNS(=O)(=O)O)NC(=O)CNC(=O)[C@H](CCCNC(=N)N)NC(=O)[C@H](CCCNC(=N)N)NC(C)=O)C(N)=O` [compound 8] (Ac-RRG[X1]I-NH2): the “binds more tightly than end product phosphate inhibitor 1” value on PKA [1] (Literature Mimetic conditions) stood at 31 times; on PKA [3] it was 108 times. In addition, at PKA [2], the “enzyme form bound best (STAIRe methodology)” value is “bind best when MgATP (not MgADP or no nucleotide) is also bound”.

As to `NC(=O)CC(=O)O`, the inhibition at 1000 µM at pp60^c-src was found to be 28%; at src it was 20%.

Consider `NS(=O)(=O)c1ccc2ccccc2c1`, for which the “% Inhibition of 2 mM RR-src at Inhibitor Concentration ( )” value (from here on “% Inhibition of 2 mM RR-src”) at pp60^c-src (100 μM inhibitor) is reported as 0 (100 μM) %.

With `NC(=O)C(N)C(=O)O` (centres unmarked), the figures for the inhibition at 1000 µM at pp60^c-src and at src were 0% and 24%, respectively.

For `Cc1cc(O)c2c(c1)C(=O)c1cc(O)cc(O)c1C2=O` [Emodin], the “mode of inhibition with respect to ATP” value at p56^lck was “ATP-competitive”.

For `COc1cccc2c1C(=O)c1c(O)c3c(c(O)c1C2=O)C[C@@](O)(C(=O)CO)C[C@@H]3O[C@H]1C[C@H](N)[C@H](O)[C@H](C)O1` [doxorubicin], the “efficacy in tumor cell culture compared with other drugs” value in [4] is given as “more effective than etoposide & cisplatin”.

`NS(=O)(=O)c1cccc2ccccc12`: the “% Inhibition of 2 mM RR-src” value at pp60^c-src (100 μM inhibitor) was 0 (100 μM) %.

As usually defined, the Ki is a measure of affinity in units of concentration, obtained from inhibition or displacement. A low value points to a stronger hold on the target. At PKA [1], `CC[C@H](C)[C@H](NC(=O)[C@H](CCP(=O)(O)O)NC(=O)CNC(=O)[C@H](CCCNC(=N)N)NC(=O)[C@H](CCCNC(=N)N)NC(C)=O)C(N)=O` (Ac-RRG[Abu(4-PO3H2)]I-NH2) gave a Ki of 76 µM.

As to `CC(=O)O[C@H]1C(=O)[C@@]2(C)[C@H]([C@H](OC(=O)c3ccccc3)[C@]3(O)C[C@H](OC(=O)[C@H](O)[C@@H](NC(=O)c4ccccc4)c4ccccc4)C(C)=C1C3(C)C)[C@]1(OC(C)=O)CO[C@@H]1C[C@@H]2O` [taxol], the “efficacy in tumor cell culture compared with other drugs” value in data set [4] is reported as “more effective than etoposide & cisplatin”.

`OB(O)c1cccc2ccccc12`: the “% Inhibition of 2 mM RR-src” value at pp60^c-src (100 μM inhibitor) is reported as 0 (100 μM) %.

`COC(=O)c1cc2ccccc2cc1N` [Compd 1d]: the “% Inhibition at 100 μM (std. dev.)” value at pp60^c-src (Table VI, hydroxynaphthalene series, 198 μM ATP) is “inactive”.

The molecule `CC[C@H](C)[C@H](NC(=O)[C@H](CC(O)P(=O)(O)O)NC(=O)CNC(=O)[C@H](CCCNC(=N)N)NC(=O)[C@H](CCCNC(=N)N)NC(C)=O)C(N)=O` (single isomer, unassigned) [inhibitor 3B] came in with a Ki on PKA [1] of 72 µM.

For the molecule cAMP-dependent protein kinase (PKA), the “phosphorylation by PKA on incubation for up to 4 hours without Kemptamide” value in [5] is “both 21 and 22 function as substrates with the D-diastereomer 22 being phosphorylated faster”; in data set [6], “both 21 and 22 function as substrates with the D-diastereomer 22 being phosphorylated faster”.

The molecule `CC[C@H](C)[C@H](NC(=O)[C@H](CNC(CC(=O)O)CC(=O)O)NC(=O)CNC(=O)[C@H](CCCNC(=N)N)NC(=O)[C@H](CCCNC(=N)N)NC(C)=O)C(N)=O` (Ac-RRG[X2]I-NH2) had a Ki at PKA [1] of 45 µM.

Take `O=P(O)(O)CO`: the inhibition at 1000 µM amounted to 0% at pp60^c-src and 51% at src.

Take `O=S(=O)(O)c1ccc2ccccc2c1`: the “% Inhibition of 2 mM RR-src” value at pp60^c-src (1 mM inhibitor) is recorded as 0 (1 mM) %.

`OB(O)c1cc2ccccc2o1` [compound 35]: the “% Inhibition of 2 mM RR-src” value on pp60^c-src (100 μM inhibitor) is 10 (100 μM) %.

On PKA [1], `CC[C@H](C)[C@H](NC(=O)[C@H](CC(O)P(=O)(O)O)NC(=O)CNC(=O)[C@H](CCCNC(=N)N)NC(=O)[C@H](CCCNC(=N)N)NC(C)=O)C(N)=O` (single isomer, unassigned) [inhibitor 3A] came in with a Ki of 18 µM.

B1: PKA pentapeptide inhibitor 11, Ac-Arg-Arg-Gly-Ala(M1)-Ile-NH2 (peptide)
peptide: Ac-RRGA(M1)I-NH2
modifications: not fully specified; printed as Ac-Arg-Arg-Gly-Ala(M1)-Ile-NH2; reading uncertain
The molecule B1 returned an inhibition constant Ki in data set [7] of 45 µM.

B2: PKA pentapeptide inhibitor 3A (hydroxyphosphonate, diastereomer A), Ac-Arg-Arg-Gly-Ala(M1)-Ile-NH2 (peptide)
peptide: Ac-RRGA(M1)I-NH2
modifications: reading uncertain; also: diastereomer A at M1, printed as Ac-Arg-Arg-Gly-Ala(M1)-Ile-NH2
B2 displayed a Ki in data set [7] of 18 µM.

B3: PKA pentapeptide inhibitor 10, Ac-Arg-Arg-Gly-Ala(M1)-Ile-NH2 (peptide)
peptide: Ac-RRGA(M1)I-NH2
modifications: reading uncertain; also: M1 group structure shown only in a drawing, printed as Ac-Arg-Arg-Gly-Ala(M1)-Ile-NH2
Regarding B3, the fold change in potency, Literature Mimetic to Cellular Mimetic conditions in [8] stood at 3 fold.

B4: pentapeptide pseudosubstrate inhibitor 20, Ac-RRGAI-NH2 (peptide)
peptide: Ac-RRGAI-NH2
B4: in data set [9], the Ki was 25 µM. This molecule also showed a Ki in [10] of 9 µM. In data set [11], this molecule displayed an IC50 µM (cond. C, 0 h preincubation), PKA inhibition of 41 µM; an IC50 µM (cond. C, 4 h preincubation), PKA inhibition of 50 µM; an IC50 µM (cond. L, 0 h preincubation), PKA inhibition of 278 µM; an IC50 µM (cond. L, 4 h preincubation), PKA inhibition of 417 µM.

B5: PKA pentapeptide inhibitor 8 (sulfamic acid), Ac-Arg-Arg-Gly-Ala(M1)-Ile-NH2 (peptide)
peptide: Ac-RRGAI-NH2
modifications: not fully specified (residue 4); printed as Ac-Arg-Arg-Gly-Ala(M1)-Ile-NH2; also: M1 = sulfamic acid on side chain of residue 4
The molecule B5 displayed an inhibitory constant (Ki) in [7] of 0.16 µM. Moreover, the fold tighter binding than end product phosphate inhibitor 1 in data set [12] was 108 times; in data set [13], 31 times.

B6: PKA pentapeptide inhibitor 1 (end product phosphate inhibitor), Ac-Arg-Arg-Gly-Ala(M1)-Ile-NH2 (peptide)
peptide: Ac-RRGAI-NH2
modifications: not fully specified (residue 4); printed as Ac-Arg-Arg-Gly-Ala(M1)-Ile-NH2; also: M1 = phosphate group on side chain of residue 4
In [8], B6 returned a fold change in potency, Literature Mimetic to Cellular Mimetic conditions of 108 fold.

B7: PKA pentapeptide inhibitor 2 (phosphonate), Ac-Arg-Arg-Gly-Ala(M1)-Ile-NH2 (peptide)
peptide: Ac-RRGAI-NH2
modifications: not fully specified (residue 4); printed as Ac-Arg-Arg-Gly-Ala(M1)-Ile-NH2; also: M1 = phosphonate on side chain of residue 4
Consider B7, for which the Ki in data set [7] worked out at 76 µM.

B8: PKA pentapeptide inhibitor 7 (sulfonamide), Ac-Arg-Arg-Gly-Ala(M1)-Ile-NH2 (peptide)
peptide: Ac-RRGAI-NH2
modifications: not fully specified (residue 4); printed as Ac-Arg-Arg-Gly-Ala(M1)-Ile-NH2; also: M1 = sulfonamide on side chain of residue 4
On to B8, for which the fold less potent than inhibitor 8 in data set [14] worked out at 1880 times. Further, the Ki in [7] turned out to be 300 µM.

B9: PKA pentapeptide inhibitor 3B (hydroxyphosphonate, diastereomer B), Ac-Arg-Arg-Gly-Ala(M1)-Ile-NH2 (peptide)
peptide: Ac-RRGA(M1)I-NH2
modifications: reading uncertain; also: diastereomer B at M1, printed as Ac-Arg-Arg-Gly-Ala(M1)-Ile-NH2
Regarding B9, the Ki in data set [7] is 72 µM.
